From ChEMBL document CHEMBL5465560, “Selectivity Literature for EUbOPEN Chemogenomic Library” (2024)

Assays:
Focal adhesion kinase 1 = Focal adhesion kinase 1 (Homo sapiens, UniProt Q05397); test: Selectivity interaction (KinomeScan (DiscoverX)) EUB0001079a PTK2; details: at 1 µM
[1] = molecular target: Ribosomal protein S6 kinase alpha-2 (Homo sapiens) (UniProt Q15349); test: Selectivity interaction (ActivX KiNativ screen (kinase selectivity in THP-1 cell lysates)) EUB0000639a RPS6KA2; assay type: subcellular; details: lysate, at 0.2 µM
Chain of Ribosomal protein S6 kinase alpha-2 (Homo sapiens) (Q15349 whole entry): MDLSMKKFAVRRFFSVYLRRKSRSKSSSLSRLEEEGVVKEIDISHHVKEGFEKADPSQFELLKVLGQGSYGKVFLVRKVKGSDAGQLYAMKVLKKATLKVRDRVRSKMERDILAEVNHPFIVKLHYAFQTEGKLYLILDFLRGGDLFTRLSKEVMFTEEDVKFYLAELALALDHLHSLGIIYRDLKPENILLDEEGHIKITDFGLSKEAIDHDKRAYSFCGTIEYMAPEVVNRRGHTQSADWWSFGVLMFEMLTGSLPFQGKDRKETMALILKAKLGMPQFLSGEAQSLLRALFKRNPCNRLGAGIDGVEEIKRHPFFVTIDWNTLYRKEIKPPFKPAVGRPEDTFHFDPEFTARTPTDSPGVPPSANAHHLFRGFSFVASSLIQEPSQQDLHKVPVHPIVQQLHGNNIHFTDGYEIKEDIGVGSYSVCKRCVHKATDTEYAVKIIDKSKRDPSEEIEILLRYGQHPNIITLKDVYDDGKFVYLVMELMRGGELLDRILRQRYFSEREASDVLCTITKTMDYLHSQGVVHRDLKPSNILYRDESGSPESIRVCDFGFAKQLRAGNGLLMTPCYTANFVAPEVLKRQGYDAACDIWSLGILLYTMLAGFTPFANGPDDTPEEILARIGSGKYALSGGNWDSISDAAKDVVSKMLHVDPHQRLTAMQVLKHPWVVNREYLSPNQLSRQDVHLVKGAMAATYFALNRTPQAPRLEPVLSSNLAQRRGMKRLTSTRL

[2] = molecular target: T1, Serine/threonine-protein kinase NLK (Homo sapiens) (UniProt Q9UBE8); details: at 10 µM
T1 sequence (whole entry): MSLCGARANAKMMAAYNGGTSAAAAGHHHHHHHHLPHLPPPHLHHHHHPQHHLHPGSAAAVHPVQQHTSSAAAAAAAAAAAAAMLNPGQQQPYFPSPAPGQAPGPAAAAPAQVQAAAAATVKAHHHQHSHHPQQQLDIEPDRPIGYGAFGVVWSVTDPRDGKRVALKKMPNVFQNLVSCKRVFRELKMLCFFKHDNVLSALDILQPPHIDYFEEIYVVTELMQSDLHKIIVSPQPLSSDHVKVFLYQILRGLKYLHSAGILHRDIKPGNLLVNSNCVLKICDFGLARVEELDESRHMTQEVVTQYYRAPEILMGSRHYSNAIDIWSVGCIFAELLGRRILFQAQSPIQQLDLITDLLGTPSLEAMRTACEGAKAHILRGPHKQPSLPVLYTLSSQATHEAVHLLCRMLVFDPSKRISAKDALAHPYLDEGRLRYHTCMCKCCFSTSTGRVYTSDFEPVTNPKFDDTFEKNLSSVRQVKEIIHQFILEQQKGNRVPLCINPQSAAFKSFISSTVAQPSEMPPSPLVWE

[3] = molecular target: Serine/threonine-protein kinase MRCK gamma (Homo sapiens) (UniProt Q6DT37); test: Selectivity interaction (Ambit KINOMEscan and KiNATiv profiling in Jurkat cells) EUB0000090b CDC42BPG; assay type: cell-based; details: at 1 µM
Chain of Serine/threonine-protein kinase MRCK gamma (Homo sapiens) (Q6DT37 whole entry): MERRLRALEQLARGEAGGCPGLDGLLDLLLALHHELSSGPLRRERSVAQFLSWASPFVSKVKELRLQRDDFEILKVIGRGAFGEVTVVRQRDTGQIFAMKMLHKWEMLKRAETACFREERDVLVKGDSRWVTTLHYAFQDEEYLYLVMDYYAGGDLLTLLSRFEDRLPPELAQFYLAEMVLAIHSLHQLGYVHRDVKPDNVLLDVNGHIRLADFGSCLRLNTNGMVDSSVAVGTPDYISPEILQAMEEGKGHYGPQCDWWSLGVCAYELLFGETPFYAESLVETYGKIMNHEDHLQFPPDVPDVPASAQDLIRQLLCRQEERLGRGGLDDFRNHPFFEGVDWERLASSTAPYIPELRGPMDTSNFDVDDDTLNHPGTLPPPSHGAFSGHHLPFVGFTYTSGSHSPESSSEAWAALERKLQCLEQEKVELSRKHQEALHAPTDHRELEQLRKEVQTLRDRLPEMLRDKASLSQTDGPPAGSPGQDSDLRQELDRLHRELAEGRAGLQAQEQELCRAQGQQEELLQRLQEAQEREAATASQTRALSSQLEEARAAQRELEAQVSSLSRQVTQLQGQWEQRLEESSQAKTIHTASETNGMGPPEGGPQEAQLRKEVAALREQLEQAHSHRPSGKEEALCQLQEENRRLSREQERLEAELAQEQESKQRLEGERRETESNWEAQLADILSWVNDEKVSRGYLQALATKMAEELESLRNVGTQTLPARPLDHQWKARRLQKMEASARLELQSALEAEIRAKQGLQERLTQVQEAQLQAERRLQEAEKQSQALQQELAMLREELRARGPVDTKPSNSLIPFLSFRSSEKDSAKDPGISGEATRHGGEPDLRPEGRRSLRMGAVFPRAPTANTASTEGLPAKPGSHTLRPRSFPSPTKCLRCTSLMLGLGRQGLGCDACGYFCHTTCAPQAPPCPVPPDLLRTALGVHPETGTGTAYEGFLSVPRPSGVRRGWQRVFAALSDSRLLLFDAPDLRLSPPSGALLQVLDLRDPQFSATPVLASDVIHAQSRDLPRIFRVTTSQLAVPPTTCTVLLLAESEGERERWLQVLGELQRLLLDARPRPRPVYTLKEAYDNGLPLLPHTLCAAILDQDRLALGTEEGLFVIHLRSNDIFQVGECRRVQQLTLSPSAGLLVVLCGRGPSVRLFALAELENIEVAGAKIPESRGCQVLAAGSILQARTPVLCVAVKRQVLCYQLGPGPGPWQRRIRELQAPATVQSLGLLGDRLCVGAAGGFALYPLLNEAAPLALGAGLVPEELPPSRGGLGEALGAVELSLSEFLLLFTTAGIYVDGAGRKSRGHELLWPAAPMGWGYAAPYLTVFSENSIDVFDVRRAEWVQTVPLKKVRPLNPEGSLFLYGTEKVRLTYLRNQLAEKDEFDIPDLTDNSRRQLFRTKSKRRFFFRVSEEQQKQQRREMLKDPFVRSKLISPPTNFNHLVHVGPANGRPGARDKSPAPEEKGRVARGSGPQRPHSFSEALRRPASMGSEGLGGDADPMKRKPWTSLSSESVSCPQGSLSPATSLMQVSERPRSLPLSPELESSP

[4] = molecular target: T2, Serine/threonine-protein kinase D2 (Homo sapiens) (UniProt Q9BZL6); test: Selectivity interaction (KinomeScan (DiscoverX)) EUB0000045b PRKD2
T2 sequence (whole entry): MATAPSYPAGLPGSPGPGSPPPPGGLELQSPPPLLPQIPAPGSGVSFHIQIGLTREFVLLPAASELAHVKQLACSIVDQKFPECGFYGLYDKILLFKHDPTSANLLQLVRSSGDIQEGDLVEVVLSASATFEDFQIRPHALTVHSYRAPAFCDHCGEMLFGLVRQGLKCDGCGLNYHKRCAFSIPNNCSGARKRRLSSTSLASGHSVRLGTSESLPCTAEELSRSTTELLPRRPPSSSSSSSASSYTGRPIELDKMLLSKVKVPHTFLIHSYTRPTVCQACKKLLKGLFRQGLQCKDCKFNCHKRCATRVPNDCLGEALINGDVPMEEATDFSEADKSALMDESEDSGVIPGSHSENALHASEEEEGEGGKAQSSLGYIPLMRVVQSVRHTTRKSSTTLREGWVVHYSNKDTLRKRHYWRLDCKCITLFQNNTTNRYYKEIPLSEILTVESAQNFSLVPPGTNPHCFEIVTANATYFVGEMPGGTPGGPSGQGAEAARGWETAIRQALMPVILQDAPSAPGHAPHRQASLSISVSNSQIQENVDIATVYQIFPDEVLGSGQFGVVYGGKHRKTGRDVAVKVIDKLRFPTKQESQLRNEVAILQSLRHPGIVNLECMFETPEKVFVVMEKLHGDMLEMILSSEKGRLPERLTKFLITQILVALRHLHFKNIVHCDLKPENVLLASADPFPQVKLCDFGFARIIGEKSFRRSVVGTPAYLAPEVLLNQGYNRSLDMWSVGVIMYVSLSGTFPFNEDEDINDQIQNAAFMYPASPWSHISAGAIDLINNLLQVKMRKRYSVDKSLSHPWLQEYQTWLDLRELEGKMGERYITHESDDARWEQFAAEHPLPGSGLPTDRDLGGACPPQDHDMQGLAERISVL

[5] = molecular target: T3, Serine/threonine-protein kinase Nek1 (Homo sapiens) (UniProt Q96PY6); test: Selectivity interaction (ActivX KiNativ screen (ex vivo kinase selectivity in human PBMCs)) EUB0001619a NEK1; assay type: cell-based; details: PBMC, at 1 µM
T3 sequence (whole entry): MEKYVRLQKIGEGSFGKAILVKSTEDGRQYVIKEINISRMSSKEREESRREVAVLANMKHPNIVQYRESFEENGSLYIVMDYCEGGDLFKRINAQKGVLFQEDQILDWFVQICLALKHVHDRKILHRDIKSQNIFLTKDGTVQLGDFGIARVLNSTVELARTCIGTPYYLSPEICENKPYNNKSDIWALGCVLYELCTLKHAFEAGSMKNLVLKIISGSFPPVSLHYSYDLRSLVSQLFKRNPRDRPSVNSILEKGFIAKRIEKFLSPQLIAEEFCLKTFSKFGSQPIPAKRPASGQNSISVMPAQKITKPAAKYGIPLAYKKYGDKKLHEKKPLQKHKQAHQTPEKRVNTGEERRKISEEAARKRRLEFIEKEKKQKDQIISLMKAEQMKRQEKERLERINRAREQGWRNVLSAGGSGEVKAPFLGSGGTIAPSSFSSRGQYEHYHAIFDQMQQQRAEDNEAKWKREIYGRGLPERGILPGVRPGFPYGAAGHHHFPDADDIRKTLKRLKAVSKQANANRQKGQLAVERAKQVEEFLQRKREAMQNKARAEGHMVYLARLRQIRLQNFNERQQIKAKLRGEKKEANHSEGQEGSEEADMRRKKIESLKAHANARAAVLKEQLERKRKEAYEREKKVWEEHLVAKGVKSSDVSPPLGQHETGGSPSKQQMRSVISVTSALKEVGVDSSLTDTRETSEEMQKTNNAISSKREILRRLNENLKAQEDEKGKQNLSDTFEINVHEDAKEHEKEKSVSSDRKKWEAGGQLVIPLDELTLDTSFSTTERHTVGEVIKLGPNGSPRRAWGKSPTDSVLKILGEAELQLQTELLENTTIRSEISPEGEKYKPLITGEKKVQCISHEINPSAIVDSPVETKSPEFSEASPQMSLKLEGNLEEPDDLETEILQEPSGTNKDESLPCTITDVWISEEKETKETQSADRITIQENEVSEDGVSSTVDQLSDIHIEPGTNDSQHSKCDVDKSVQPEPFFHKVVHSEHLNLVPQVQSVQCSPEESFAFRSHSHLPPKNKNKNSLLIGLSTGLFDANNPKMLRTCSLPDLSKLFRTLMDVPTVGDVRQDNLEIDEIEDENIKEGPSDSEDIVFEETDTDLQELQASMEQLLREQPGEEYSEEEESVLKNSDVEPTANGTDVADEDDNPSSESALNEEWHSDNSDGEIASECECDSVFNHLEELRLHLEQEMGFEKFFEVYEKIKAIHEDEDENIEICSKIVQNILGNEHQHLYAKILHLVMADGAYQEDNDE

Chain of Focal adhesion kinase 1 (Q05397 2-1052 limits assumed): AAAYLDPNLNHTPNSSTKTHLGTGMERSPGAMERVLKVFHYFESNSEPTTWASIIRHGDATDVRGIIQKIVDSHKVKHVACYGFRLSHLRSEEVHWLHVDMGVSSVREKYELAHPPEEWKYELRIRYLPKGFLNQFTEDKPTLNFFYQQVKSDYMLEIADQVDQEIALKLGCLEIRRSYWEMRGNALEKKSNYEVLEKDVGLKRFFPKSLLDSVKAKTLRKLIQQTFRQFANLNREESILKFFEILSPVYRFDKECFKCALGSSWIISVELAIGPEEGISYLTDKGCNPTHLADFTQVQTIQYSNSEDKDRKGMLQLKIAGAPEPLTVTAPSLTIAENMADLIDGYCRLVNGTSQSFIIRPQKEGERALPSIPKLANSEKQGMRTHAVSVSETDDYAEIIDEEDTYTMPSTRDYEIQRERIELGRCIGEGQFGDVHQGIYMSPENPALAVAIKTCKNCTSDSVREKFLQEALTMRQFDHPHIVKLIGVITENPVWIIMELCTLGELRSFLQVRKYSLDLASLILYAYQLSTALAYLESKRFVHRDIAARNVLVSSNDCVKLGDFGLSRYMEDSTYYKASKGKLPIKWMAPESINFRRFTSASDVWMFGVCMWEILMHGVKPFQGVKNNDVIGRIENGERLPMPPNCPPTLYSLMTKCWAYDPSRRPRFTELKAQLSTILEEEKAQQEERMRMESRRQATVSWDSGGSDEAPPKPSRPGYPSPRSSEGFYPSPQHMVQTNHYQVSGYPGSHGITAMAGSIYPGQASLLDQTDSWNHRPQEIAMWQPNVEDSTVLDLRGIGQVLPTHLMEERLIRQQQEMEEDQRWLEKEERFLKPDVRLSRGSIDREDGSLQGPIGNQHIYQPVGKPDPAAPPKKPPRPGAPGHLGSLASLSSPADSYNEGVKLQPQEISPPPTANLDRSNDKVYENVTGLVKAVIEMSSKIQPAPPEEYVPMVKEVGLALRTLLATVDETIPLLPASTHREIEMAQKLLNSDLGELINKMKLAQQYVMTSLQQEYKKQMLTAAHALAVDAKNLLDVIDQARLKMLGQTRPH

Nc1cnc(N2CCc3cc(S(=O)(=O)Nc4c(F)cc(Cl)cc4F)cc(N4CCCC4=O)c32)nc1 [TP-020n]
% of control (Focal adhesion kinase 1): 99%

CC[C@@H]1[C@H](F)C(=O)N[C@@H]1COc1nccc2cc(C(N)=O)c(OC)cc12 [ZIMLOVISERTIB]
% of inhibition [1]: 2.6%

COCC(=O)NC/C=C/c1ccc2ncnc(Nc3ccc(Oc4ccc(C)nc4)c(C)c3)c2c1 [CP-724714]
% of control [2]: 100%

CN(C)C/C=C/C(=O)Nc1ccc(C(=O)N2CCCC(Nc3ncc(Cl)c(-c4c[nH]c5ccccc45)n3)C2)cc1 (configuration not stated)
% of control [3]: 90%

C=CC(=O)Nc1cc(-n2c(=O)ccc3cnc4ccc(-c5ccc(NS(C)(=O)=O)cc5)cc4c32)ccc1C
% of control ([4]; at 1 µM): 87%
% of control ([4]; at 10 µM): 82%

N#Cc1cccc(-c2c[nH]c3ncnc(N4CCOCC4)c23)c1
% of inhibition [5]: -2%
